Earlier results as cited in patent publication US20240130675A1, “Methods for Treating Autism Spectrum Disorder” (The General Hospital Corporation, priority 2021, published 2024).
Counter-ions that a name gives are not always drawn.

What was measured:
[1] = tested on: autism; conditions: RUPP Autism Network study; cited from earlier work
[2] = tested on: ASD symptoms; conditions: 5-19 year-olds, four weeks; only reflected in CGI, not in ABC-CV; cited from earlier work
[3] = tested on: ASD children; conditions: cited from earlier work
[4] = tested on: youth with ASD; conditions: cited from earlier work
[5] = tested on: older adolescents and young adults with ASDs; conditions: cited from earlier work
[6] = tested on: ASD; conditions: in vivo; cited from earlier work
[7] = tested on: ASD symptoms; conditions: RCT; cited from earlier work

Cc1nc2n(c(=O)c1CCN1CCC(c3noc4cc(F)ccc34)CC1)CCCC2 [risperidone]
Response rate, treatment group [1]: 69.4%

NC12CC3CC(CC(C3)C1)C2 [amantadine hydrochloride]
ASD symptoms vs placebo [2]: improvement in ASD symptoms

CC(=O)N[C@@H](CS)C(=O)O [NAC, N-Acetylcysteine]
ABC irritability subscale score vs placebo [3]: significant improvement | Social impairment [4]: no significant impact on social impairment

N[C@@H]1CONC1=O [D-Cycloserine]
Stereotypic symptoms, Aberrant Behavior Checklist subscale 3 [5]: improved stereotypic symptoms | Social Responsiveness Scale and Aberrant Behavior Checklist [6]: statistically and clinically significant improvement

Nc1nnc(-c2cccc(Cl)c2Cl)c(N)n1 [lamotrigine]
Improvements vs placebo on Autism Behavior Checklist, Aberrant Behavior Checklist, Vineland, PL-ADOS, CARS [7]: no significant differences in improvements
